From ChEMBL document CHEMBL5316284, “Structural Determinants of Indole-2-carboxamides: Identification of Lead Acetamides with Pan Antimycobacterial Activity” (J Med Chem, 2023)
In brackets after ≈: the same amount, converted by molar mass. Activity calls are given as the source filed them. The calls are words filed in the database; no cut-off is given here.

Key:
[1] = test system: Mycobacterium tuberculosis; assay: Antimycobacterial activity against Mycobacterium tuberculosis H37Rv mc2 6206 assessed as inhibition of bacterial growth measured after 7 days by visual analysis; assay type: functional; details: H37Rv mc2 6206, 168 h, time 7 day
[2] = test system: Mycolicibacterium fortuitum; assay: Antimycobacterial activity against Mycobacterium fortuitum ATCC 6841 assessed as inhibition of bacterial growth by visual analysis; assay type: functional
[3] = Antimycobacterial activity against Mycobacterium avium subsp. avium 2585R assessed as inhibition of bacterial growth by visual analysis; assay type: functional
[4] = test system: Mycobacterium intracellulare; assay: Antimycobacterial activity against Mycobacterium intracellulare 1956 assessed as inhibition of bacterial growth by visual analysis; assay type: functional
[5] = test system: Mycobacteroides chelonae; assay: Antimycobacterial activity against Mycobacteroides chelonae ATCC 35752 assessed as inhibition of bacterial growth by visual analysis; assay type: functional
[6] = test system: Mycobacterium intracellulare subsp. chimaera; assay: Antimycobacterial activity against Mycobacterium intracellulare subsp. chimaera 1501948 assessed as inhibition of bacterial growth by visual analysis; assay type: functional
[7] = test system: Mycobacterium kansasii; assay: Antimycobacterial activity against Mycobacterium kansasii ATCC 1279 assessed as inhibition of bacterial growth by visual analysis; assay type: functional
[8] = Kinetic solubility of compound at pH 7.4 incubated for 6 hrs by LC-MS/MS analysis; assay type: physicochemical; details: buffer, read-out: Kinetic_solubility
[9] = Permeability of the compound by PAMPA method; assay type: ADME
[10] = Plasma protein binding in human at 10 ug/ml incubated for 4 hrs under shaking condition by LC/MS/MS analysis; assay type: ADME, cell-free; details: at 10 µg/mL, read-out: PPB (converted)
[11] = Metabolic stability in human liver S9 fraction assessed as parent compound remaining at 5 ug/ml after 90 mins in presence of NADPH by LC/MS analysis; assay type: ADME, subcellular; details: s9, 1.5 h, dose 5 µg/ml
[12] = Metabolic stability in mouse liver S9 fraction assessed as parent compound remaining at 5 ug/ml after 90 mins in presence of NADPH by LC/MS analysis; assay type: ADME, subcellular; details: s9, 1.5 h, dose 5 µg/ml
[13] = Cytotoxicity against human WI26VA4 cells assessed as inhibition of cell growth measured after 72 hrs by MTT assay; assay type: toxicity, cell-based
[14] = Selectivity index, ratio of IC50 for Cytotoxicity against human WI26VA4 cells to MIC for antimycobacterial activity against Mycobacterium abscessus […]; assay type: toxicity, cell-based; details: read-out: Selectivity Index
[15] = Selectivity index, ratio of IC50 for Cytotoxicity against human WI26VA4 cells to MIC for antimycobacterial activity against Mycobacterium tuberculosis H37Rv mc2 6206; assay type: toxicity, cell-based; details: read-out: Selectivity Index
[16] = Cytotoxicity against mouse HEI-OC1 cells assessed as viable cells upto 100 uM measured after 72 hrs by MTT assay; assay type: toxicity, cell-based; details: hei-oc1, 72 h
[17] = test system: Mycobacteroides abscessus; assay: Antimycobacterial activity against Mycobacterium abscessus […] assessed as inhibition of mycolic acid biosynthesis at 1 to 10 times of MIC incubated for 3 hrs in presence of [1,2-14C]-acetate by TLC analysis; assay type: functional, organism-based
[18] = test system: Mycobacteroides abscessus; assay: Antimycobacterial activity against Mycobacterium abscessus […] assessed as decrease in mycolic acid transfer onto cell wall arabinogalactan incubated for 3 hrs in presence of [1,2-14C]-acetate by TLC analysis; assay type: functional, organism-based
[19] = test system: Mycobacteroides abscessus; assay: Antimycobacterial activity against Mycobacterium abscessus […] assessed as decrease in mycolic acid transfer onto cell wall trehalose dimycolate incubated for 3 hrs in presence of [1,2-14C]-acetate by TLC analysis; assay type: functional, organism-based
[20] = test system: Mycobacteroides abscessus; assay: Antimycobacterial activity against Mycobacterium abscessus ATCC 19977 harbouring wild type mmpL3 gene assessed as inhibition of bacterial growth by visual analysis; assay type: functional
[21] = test system: Mycobacteroides abscessus; assay: Antimycobacterial activity against Mycobacterium Mycobacterium abscessus ATCC 19977 harbouring mmpL3 I306S mutant gene assessed as inhibition of bacterial growth by visual analysis; assay type: functional
[22] = test system: Mycobacteroides abscessus; assay: Antimycobacterial activity against Mycobacterium abscessus ATCC 19977 harbouring mmpL3 A309P mutant gene assessed as inhibition of bacterial growth by visual analysis; assay type: functional
[23] = test system: Mycobacteroides abscessus; assay: Antimycobacterial activity against Mycobacterium abscessus ATCC 19977 harbouring mmpL3 L551S mutant gene assessed as inhibition of bacterial growth by visual analysis; assay type: functional
[24] = test system: Mycobacterium tuberculosis; assay: Displacement of North 114 from Mycobacterium tuberculosis wild type MmpL3 expressed in Mycobacterium smegmatis upto 8 uM incubated for 15 mins by flow cytometry based competition binding assay
[25] = Binding affinity to Mycobacterium tuberculosis MmpL3 assessed as equilibrium constant by SPR analysis
[26] = Binding affinity to Mycobacterium tuberculosis MmpL3 assessed as dissociation constant by SPR analysis
[27] = test system: Mycobacteroides abscessus; assay: Antimycobacterial activity against Mycobacterium abscessus […] assessed as inhibition of bacterial growth measured after 5 days by visual analysis; assay type: functional; details: 120 h, time 5 day
[28] = test system: THP-1; assay: Cytotoxicity against human THP-1 cells assessed as inhibition of cell growth measured after 72 hrs by MTT assay; assay type: toxicity, cell-based
[29] = Cytotoxicity against mouse HEI-OC1 cells assessed as inhibition of cell growth measured after 72 hrs by MTT assay; assay type: toxicity, cell-based

In the case of `O=C(CNc1cccc(OC(F)(F)F)c1)NC12CC3CC(CC(C3)C1)C2`, the MIC [1] is reported as 0.25 µg/mL (≈ 0.679 µM), the MIC [2] is reported as 2 µg/mL (≈ 5.43 µM) and the MIC [3] is reported as 8 µg/mL (≈ 21.7 µM). It also gave an MIC [4] of 8 µg/mL (≈ 21.7 µM), an MIC [5] of 4 µg/mL (≈ 10.9 µM) and an MIC [6] of 16 µg/mL (≈ 43.4 µM). For the same molecule, the MIC [7] was 8 µg/mL (≈ 21.7 µM), the solubility kinetic at 6 h [8] was 20.4 µg/mL (≈ 55.4 µM) and the permeability [9] was 3.61 10^-6 cm/s. The fraction unbound at 4 h, 10 ug/ml [10] was 0.051, the t1/2 [11] was 42 min and the t1/2 [12] was 24 min. It also gave an IC50 [13] greater than 20 µg/mL, a selectivity ratio [14] greater than 40 and a selectivity ratio [15] greater than 80. For the same molecule, the Activity [16] was 70.8%, the Activity [17] was “inactive” and the Activity [18] was “Active”. For the same molecule, the Activity [19] was “Active”, the MIC [20] was 0.5 µg/mL (≈ 1.36 µM) and the MIC [21] was 1 µg/mL (≈ 2.71 µM). The MIC [22] was greater than 64 µg/mL, the MIC [23] was 0.5 µg/mL (≈ 1.36 µM) and the Activity [24] was “Active”. It also gave a Kd [25] of 780 µM and a Kd [26] of 1.23 s⁻¹.

`Cc1cc(C)c2cc(C(=O)NC3CCCCCCC3)[nH]c2c1` gave an MIC [27] of 0.063 µg/mL (≈ 0.211 µM), an MIC [1] of 0.02 µg/mL (≈ 0.067 µM) and a solubility kinetic at 6 h [8] of 1.6 µg/mL (≈ 5.36 µM). For the same molecule, the permeability [9] was 0.18 10^-6 cm/s, the fraction unbound at 4 h, 10 ug/ml [10] was 0.018 and the t1/2 [11] was 30 min. It also gave an IC50 [28] greater than 14.9 µg/mL, a selectivity ratio [14] greater than 237 and a selectivity ratio [15] greater than 764.

`C[C@@H]1[C@H]2C[C@@H](C[C@H]1NC(=O)CNc1cccc(Cl)c1)C2(C)C` showed an MIC [1] of 0.25 µg/mL (≈ 0.779 µM), an MIC [2] of 2 µg/mL (≈ 6.23 µM) and an MIC [3] of 8 µg/mL (≈ 24.9 µM). It also gave an MIC [4] of 8 µg/mL (≈ 24.9 µM), an MIC [5] of 4 µg/mL (≈ 12.5 µM) and an MIC [6] of 16 µg/mL (≈ 49.9 µM). The MIC [7] was 8 µg/mL (≈ 24.9 µM), the solubility kinetic at 6 h [8] was 16.3 µg/mL (≈ 50.8 µM) and the permeability [9] was 1.33 10^-6 cm/s. It also gave a fraction unbound at 4 h, 10 ug/ml [10] of 0.059, a t1/2 [11] of 318 min and a t1/2 [12] of 276 min. For the same molecule, the IC50 [13] was greater than 20 µg/mL, the selectivity ratio [14] was greater than 40 and the selectivity ratio [15] was greater than 80. For the same molecule, the IC50 at 72 h [29] was 14.1 µM, the Activity [17] was “inactive” and the Activity [18] was “Active”. For the same molecule, the Activity [19] was “Active”, the MIC [20] was 0.5 µg/mL (≈ 1.56 µM) and the MIC [21] was 1 µg/mL (≈ 3.12 µM). For the same molecule, the MIC [22] was greater than 64 µg/mL, the MIC [23] was 0.5 µg/mL (≈ 1.56 µM) and the Activity [24] was “Active”. For the same molecule, the Kd [25] was 800 µM and the Kd [26] was 1.22 s⁻¹.

`CC[C@H]1OC(=O)[C@H](C)[C@@H](O[C@H]2C[C@@](C)(OC)[C@@H](O)[C@H](C)O2)[C@H](C)[C@@H](O[C@@H]2O[C@H](C)C[C@H](N(C)C)[C@H]2O)[C@](C)(OC)C[C@@H](C)C(=O)[C@H](C)[C@@H](O)[C@]1(C)O` [CLARITHROMYCIN] gave an MIC [21] of 4 µg/mL (≈ 5.35 µM), an MIC [22] of 4 µg/mL (≈ 5.35 µM) and an MIC [23] of 8 µg/mL (≈ 10.7 µM).
